In patent publication US4593090A, “Novel nitrosourea compounds, method for preparing same, and pharmaceutical composition containing same” (Gogo Kimura, priority 1981, dated 1986):

How the values were obtained:
[1] = Acute toxicity (LD50, Behrens-Karber method); format: in vivo, ICR mice; conditions: mouse, in vivo, ip, mortality during 30 days
Protocol: Test compounds, dissolved or suspended in 0.5% aqueous CMC, were each intraperitoneally administered to ICR mice in a dose of 0.1 ml per 10 g body weight. LD50 (mg/kg) value of each test compound was calculated from the mortality of mice during 30 days by the Behrens-Karber method.

Leukemia L1210 = assay: Activity against Leukemia L1210, intraperitoneal, increase in life span of mice; format: in vivo, female mice (BDF1 family); conditions: for ED (maximum ILS) / ED30: Mus musculus, L1210, ip, ip once a day for 5 successive days; for ED (maximum ILS): daily dosage giving maximum increase of life span, read-out: O.D. (optimum dosage); for ED30: daily dosage increasing average survival days by 30%, read-out: ILS30; for Survivors after 60 days / Max. ILS % / Therapeutic ratio TR: ip; for Survivors after 60 days: 6-membered group; for Max. ILS %: 60-day observation, versus control; for Therapeutic ratio TR: O.D./ILS30
Method in brief: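 Female BDF1 mice (20 to 23 g; 6 per group) were implanted intraperitoneally with 1×10^5 L1210 cells, then dosed ip or orally once daily for 5 days starting 24 h later. Survival was followed over 60 days, and ILS% was derived from mean survival days versus untreated controls.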

Structure (SMILES)	LD50 at 720 h [1] [mg/kg]	ED (maximum ILS) (Leukemia L1210) [mg/kg]	ED30 (Leukemia L1210) [mg/kg]	Survivors after 60 days (Leukemia L1210)	Max. ILS % (Leukemia L1210) [%]	Therapeutic ratio TR (Leukemia L1210)
COCCCOC1OC(CO)C(O)C(O)C1N(CC(C)C)C(=O)N(CCCl)N=O [Compound 68, 3-isobutyl-3-(3-methoxy-n-propyl α-D-glucopyranose-2-yl)-1-(2-chloroethyl)-1-nitrosourea]	500	170	4.43	4/6	> 425	38.4
CCOCCCOC1OC(CO)C(O)C(O)C1N(C(=O)N(CCCl)N=O)C(C)CC [Compound 69, 3-sec-butyl-3-(3-ethoxy-n-propyl α-D-glucopyranose-2-yl)-1-(2-chloroethyl)-1-nitrosourea]	560			4/6	> 435	
COCC(C)OC1OC(CO)C(O)C(O)C1N(CC(C)C)C(=O)N(CCCl)N=O (stereo not drawn) [Compound 70]	645	200	5.21	4/6	> 420	38.4
COCC(C)OC1OC(CO)C(O)C(O)C1N(CC1CC1)C(=O)N(CCCl)N=O [Compound 72, 3-cyclopropylmethyl-3-(1-methyl-2-methoxyethyl α-D-glucopyranose-2-yl)-1-(2-chloroethyl)-1-nitrosourea]	550	180	4.53	5/6	> 625	39.7
CC(C)CN(C(=O)N(CCCl)N=O)C1C(OC2CCCCC2)OC(CO)C(O)C1O [Compound 73, 3-isobutyl-3-(cyclohexyl α-D-glucopyranose-2-yl)-1-(2-chloroethyl)-1-nitrosourea]	670	200	5.38	4/6	> 420	37.2
CCCCN(C(=O)N(CCCl)N=O)C1C(O)C(CO)OC(OCCCOC)C1O [Compound 76, 3-n-butyl-3-(3-methoxy-n-propyl α-D-glucopyranose-3-yl)-1-(2-chloroethyl)-1-nitrosourea]	650	200	5.21	3/6	> 360	38.4
COCCCOC1OC(CO)C(O)C(N(CC(C)C)C(=O)N(CCCl)N=O)C1O [Compound 77, 3-isobutyl-3-(3-methoxy-n-propyl α-D-glucopyranose-3-yl)-1-(2-chloroethyl)-1-nitrosourea]	685	200	5.08	4/6	> 425	39.4
CCOCCCOC1OC(CO)C(O)C(N(CC(C)C)C(=O)N(CCCl)N=O)C1O [Compound 78, 3-isobutyl-3-(3-ethoxy-n-propyl α-D-glucopyranose-3-yl)-1-(2-chloroethyl)-1-nitrosourea]	675	200	5.33	3/6	> 355	37.5
COCC(C)OC1OC(CO)C(O)C(N(CC(C)C)C(=O)N(CCCl)N=O)C1O [Compound 79, 3-isobutyl-3-(1-methyl-2-methoxyethyl α-D-glucopyranose-3-yl)-1-(2-chloroethyl)-1-nitrosourea]	690	200	4.93	4/6	> 430	40.6
CCCCOC1OC(CO)C(O)C(N(C(=O)N(CCCl)N=O)C(C)CC)C1O [Compound 81, 3-sec-butyl-3-(n-butyl β-D-glucopyranose-3-yl)-1-(2-chloroethyl)-1-nitrosourea]	580	200	5.8	3/6	> 360	34.5
CCC(C)OC1OC(CO)C(O)C(N(CC(C)C)C(=O)N(CCCl)N=O)C1O [Compound 84, 3-isobutyl-3-(sec-butyl α-D-glucopyranose-3-yl)-1-(2-chloroethyl)-1-nitrosourea]	695	220	5.8	3/6	> 355	37.9
C=C(C)CN(C(=O)N(CCCl)N=O)C1C(O)C(CO)OC(OC(C)CC)C1O [Compound 85, 3-(2-methyl-2-propenyl)-3-(sec-butyl α-D-glucopyranose-3-yl)-1-(2-chloroethyl)-1-nitrosourea]	685	220	7.25	3/6	> 360	30.3
COCC(C)N(C(=O)N(CCCl)N=O)C1C(O)C(CO)OC(OC2CCCCC2)C1O [Compound 87, 3-(1-methyl-2-methoxyethyl)-3-(cyclohexyl α-D-glucopyranose-3-yl)-1-(2-chloroethyl)-1-nitrosourea]	720	200	4.24	6/6	> 700	47.2
O=NN(CCCl)C(=O)N(CCC1CCCC1)C1C(O)C(CO)OC(OC2CCCCC2)C1O [Compound 88, 3-(2-cyclopentylethyl)-3-(cyclohexyl α-D-glucopyranose-3-yl)-1-(2-chloroethyl)-1-nitrosourea]	710	200	6.62	3/6	> 360	30.2
CCCN(C(=O)N(CCCl)N=O)C1C(CO)OC(OCC(C)C)C(O)C1O [Compound 90, 3-n-propyl-3-(isobutyl α-D-glucopyranose-4-yl)-1-(2-chloroethyl)-1-nitrosourea]	325	100	3.07	3/6	> 350	32.6
C=C(C)CN(C(=O)N(CCCl)N=O)C1C(CO)OC(OC(C)CC)C(O)C1O [Compound 91, 3-(2-methyl-2-propenyl)-3-(sec-butyl α-D-glucopyranose-4-yl)-1-(2-chloroethyl)-1-nitrosourea]	450	150	4.65	3/6	> 340	32.3
CC(C)COC1OC(CO)C(N(C(=O)N(CCCl)N=O)C(C)C)C(O)C1O [Compound 92, 3-isopropyl-3-(isobutyl α-D-glucopyranose-4-yl)-1-(2-chloroethyl)-1-nitrosourea]	335	100	3.14	3/6	> 360	31.8
CC(C)COC1OC(CO)C(N(CC2CC2)C(=O)N(CCCl)N=O)C(O)C1O [Compound 95, 3-cyclopropylmethyl-3-(isobutyl α-D-glucopyranose-4-yl)-1-(2-chloroethyl)-1-nitrosourea]	400	120	3.82	3/6	> 360	31.4
CCC(C)OC1OC(CO)C(N(C(=O)N(CCCl)N=O)C(C)COC)C(O)C1O [Compound 96, 3-(1-methyl-2-methoxyethyl)-3-(sec-butyl α-D-glucopyranose-4-yl)-1-(2-chloroethyl)-1-nitrosourea]	450	150	4.46	3/6	> 355	33.6
